Laboratory results from patent US20250304574A1, “3,4,6,7-TETRAHYDRO-2,7-NAPHTHYRIDINE-2(1H)-CARBOXAMIDE DERIVATIVES AS GPR65 INHIBITORS FOR THE TREATMENT OF CANCER AND AUTOIMMUNE DISEASES” (Pathios Therapeutics Limited, priority 2022, published 2025).

Target: human recombinant GPR65 (Homo sapiens, UniProt Q8IYL9)
Test: Human GPR65 cAMP HTRF antagonist assay
Format: cell-based
Settings: 1321N1 cells stably expressing human recombinant GPR65, assay pH 7.2, read-out: hGPR65 IC50
Experimental: Human GPR65 Cyclic Adenosine Monophosphate (cAMP) Homogeneous Time Resolved Fluorescence (HTRF) Antagonist Assay Procedure
IC50 data was obtained by the following procedure:
1321N1 human astrocytoma cells stably expressing human recombinant GPR65 (1321N1-hrGPR65 cells, EuroscreenFast) were cultured according to the vendor's instructions.
Compounds were tested for their ability to antagonise GPR65, through measuring the concentration of cytoplasmic cAMP following treatment of the cells at a pH of 7.2 to activate GPR65 signalling and addition of the compound to be tested. The extent to which the expected rise in cAMP concentration upon GPR65 activation was suppressed by the added compound is indicative of its potency. The assay was carried out according to EuroscreenFast assay Methodology as follows.
On the day of the assay, test compounds were added to 384-well, low volume, white microtiter plates by acoustic dispensing. KRH buffer (5 mM KCl, 1.25 mM MgSO4, 124 mM NaCl, 25 mM HEPES, 13.3 mM Glucose, 1.25 mM KH2PO4 and 1.45 mM CaCl2) was adjusted to pH 6.5, pH 7.6 and pH 8.4 by adding NaOH. 1321N1-hGPR65 cells were rapidly thawed and diluted in KRH, pH 7.6 prior to centrifugation at 300×g for 5 min and resuspension in assay buffer (KRH, pH 7.6, supplemented with 1 mM 3-isobutyl-1-methylxanthine (IBMX) and 200 μM ethylenediaminetetraacetic acid (EDTA)). Cells were added to assay plates at a density of 2,000 cells per well in a volume of 5 μl. Assay plates were briefly centrifuged at 100×g and then incubated at room temperature for 30 min. Cells were stimulated by the addition of 5 μL KRH, pH 6.5, to achieve an assay pH of 7.2, while control wells received 5 μl KRH, pH 8.4 to achieve an assay pH of 7.9. Assay plates were briefly centrifuged at 100×g and then incubated at room temperature for 30 min.
Accumulation of cAMP was detected by cAMP HTRF kit (Cisbio). d2-labeled cAMP and cryptate-labeled anti-cAMP antibody in Lysis and Detection Buffer (Cisbio) were added to assay plates, and the plates were incubated at room temperature for 1 h. HTRF measurements were performed using a Pherastar FSX instrument. Acceptor and donor emission signals were measured at 665 nm and 620 nm, respectively, and HTRF ratios were calculated as signal665 nm/signal620nm×10^4. Data were normalised to high and low control values and fitted with 4-parameter logistic regression to determine hGPR65 IC50 values for the test compounds, which are shown in Table 1.

human recombinant GPR65, sequence (Q8IYL9 whole entry): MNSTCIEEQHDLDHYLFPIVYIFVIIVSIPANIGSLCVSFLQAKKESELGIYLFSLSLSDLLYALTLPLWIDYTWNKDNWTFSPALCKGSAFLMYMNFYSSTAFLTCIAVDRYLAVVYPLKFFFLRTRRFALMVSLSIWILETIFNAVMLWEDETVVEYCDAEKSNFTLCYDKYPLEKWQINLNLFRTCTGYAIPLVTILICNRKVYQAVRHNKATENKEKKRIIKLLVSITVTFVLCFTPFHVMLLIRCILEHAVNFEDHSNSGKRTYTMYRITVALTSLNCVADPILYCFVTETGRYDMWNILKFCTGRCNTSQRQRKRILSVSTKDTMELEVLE

Row | IC50 | Compound
1 | < 500 nM | C[C@@H]1CN(C(=O)Nc2cc(Cl)c(C(F)(F)F)cc2F)Cc2c[nH]c(=O)cc21 (single isomer, unassigned; isomer 1) [Compound 25, N-(5-chloro-2-fluoro-4-(trifluoromethyl)phenyl)-4-methyl-6-oxo-3,4,6,7-tetrahydro-2,7-naphthyridine-2(1H)-carboxamide isomer 1]
2 | < 500 nM | C[C@@H]1CN(C(=O)Nc2cc(Cl)c(C(F)(F)F)cc2F)Cc2ccnc(F)c21 (single isomer, unassigned; isomer 1) [Compound 28, N-(5-chloro-2-fluoro-4-(trifluoromethyl)phenyl)-5-fluoro-4-methyl-3,4-dihydro-2,6-naphthyridine-2(1H)-carboxamide isomer 1]
3 | < 500 nM | C[C@H]1CN(C(=O)Nc2cc(Cl)c(C(F)(F)F)cc2F)Cc2c[nH]c(=O)cc21 (single isomer, unassigned; isomer 2) [Compound 26, N-(5-chloro-2-fluoro-4-(trifluoromethyl)phenyl)-4-methyl-6-oxo-3,4,6,7-tetrahydro-2,7-naphthyridine-2(1H)-carboxamide isomer 2]
4 | < 500 nM | C[C@H]1CN(C(=O)Nc2cc(Cl)c(C(F)(F)F)cc2F)Cc2ccnc(F)c21 (single isomer, unassigned; isomer 2) [Compound 29, N-(5-chloro-2-fluoro-4-(trifluoromethyl)phenyl)-5-fluoro-4-methyl-3,4-dihydro-2,6-naphthyridine-2(1H)-carboxamide isomer 2]
5 | < 500 nM | O=C(Nc1cc(Cl)c(C(F)(F)F)cc1F)N1CCc2c(ccnc2F)C1 [Compound 17, N-(5-Chloro-2-fluoro-4-(trifluoromethyl)phenyl)-5-fluoro-3,4-dihydro-2,6-naphthyridine-2(1H)-carboxamide]
6 | 500 to 5000 nM | CC1CN(C(=O)Nc2cc(Cl)c(C(F)(F)F)cc2F)Cc2cnc(F)cc21 (centres unmarked) [Compound 20, N-(5-Chloro-2-fluoro-4-(trifluoromethyl)phenyl)-6-fluoro-4-methyl-3,4-dihydro-2,7-naphthyridine-2(1H)-carboxamide]
7 | 500 to 5000 nM | C=C1CN(C(=O)Nc2cc(Cl)c(C(F)(F)F)cc2F)Cc2cnc(F)cc21 [Compound 22, N-(5-Chloro-2-fluoro-4-(trifluoromethyl)phenyl)-6-fluoro-4-methylene-3,4-dihydro-2,7-naphthyridine-2(1H)-carboxamide]
8 | < 500 nM | CC1CN(C(=O)Nc2cc(Cl)c(C(F)(F)F)cc2F)Cc2ccnc(F)c21 (centres unmarked) [Compound 23, N-(5-Chloro-2-fluoro-4-(trifluoromethyl)phenyl)-5-fluoro-4-methyl-3,4-dihydro-2,6-naphthyridine-2(1H)-carboxamide]
9 | < 500 nM | C=C1CN(C(=O)Nc2cc(Cl)c(C(F)(F)F)cc2F)Cc2ccnc(F)c21 [Compound 24, N-(5-Chloro-2-fluoro-4-(trifluoromethyl)phenyl)-5-fluoro-4-methylene-3,4-dihydro-2,6-naphthyridine-2(1H)-carboxamide]
10 | < 500 nM | O=C(Nc1cc(Cl)c(C(F)(F)F)cc1F)N1Cc2ccnc(F)c2C(F)C1 (centres unmarked) [Compound 27, N-(5-chloro-2-fluoro-4-(trifluoromethyl)phenyl)-4,5-difluoro-3,4-dihydro-2,6-naphthyridine-2(1H)-carboxamide]

The remaining lines, values behind:

Row | Compound | IC50
11 | CC1CN(C(=O)Nc2cc(Cl)c(C(F)(F)F)cc2F)Cc2c[nH]c(=O)cc21 (racemic) [Compound 21, (±)-N-(5-chloro-2-fluoro-4-(trifluoromethyl)phenyl)-4-methyl-6-oxo-3,4,6,7-tetrahydro-2,7-naphthyridine-2(1H)-carboxamide] | < 500 nM
12 | O=C(Nc1cc(Br)c(C(F)(F)F)cc1F)N1CCc2cc(=O)[nH]cc2C1 [Compound 1, N-(5-bromo-2-fluoro-4-(trifluoromethyl)phenyl)-6-oxo-3,4,6,7-tetrahydro-2,7-naphthyridine-2(1H)-carboxamide] | < 500 nM
13 | O=C(Nc1cc(Cl)c(C(F)(F)F)cc1F)N1CCc2cc(=O)[nH]cc2C1 [Compound 2, N-(5-Chloro-2-fluoro-4-(trifluoromethyl)phenyl)-6-oxo-3,4,6,7-tetrahydro-2,7-naphthyridine-2(1H)-carboxamide] | < 500 nM
14 | O=C(Nc1cc(Cl)c(Br)cc1F)N1CCc2cc(=O)[nH]cc2C1 [Compound 3, N-(4-Bromo-5-chloro-2-fluorophenyl)-6-oxo-3,4,6,7-tetrahydro-2,7-naphthyridine-2(1H)-carboxamide] | < 500 nM
15 | O=C(Nc1cc(C(F)(F)F)on1)N1CCc2cc(=O)[nH]cc2C1 [Compound 4, 6-Oxo-N-(5-(trifluoromethyl)isoxazol-3-yl)-3,4,6,7-tetrahydro-2,7-naphthyridine-2(1H)-carboxamide] | < 500 nM
16 | O=C(Nc1cc(Cl)c(C(F)(F)F)cn1)N1CCc2cc(=O)[nH]cc2C1 [Compound 5, N-(4-chloro-5-(trifluoromethyl)pyridin-2-yl)-6-oxo-3,4,6,7-tetrahydro-2,7-naphthyridine-2(1H)-carboxamide] | 500 to 5000 nM
17 | N#Cc1ccc2c(c1)CCN(C(=O)Nc1cc(C(F)(F)F)on1)C2 [Compound 6, 6-Cyano-N-(5-(trifluoromethyl)isoxazol-3-yl)-3,4-dihydroisoquinoline-2(1H)-carboxamide] | 500 to 5000 nM
18 | O=C(Nc1nnc(C(F)(F)F)s1)N1CCc2cc(=O)[nH]cc2C1 [Compound 7, 6-Oxo-N-(5-(trifluoromethyl)-1,3,4-thiadiazol-2-yl)-3,4,6,7-tetrahydro-2,7-naphthyridine-2(1H)-carboxamide] | 500 to 5000 nM
19 | O=C(Nc1cc(Cl)c(Cl)cn1)N1CCc2cc(=O)[nH]cc2C1 [Compound 8, N-(4,5-Dichloropyridin-2-yl)-6-oxo-3,4,6,7-tetrahydro-2,7-naphthyridine-2(1H)-carboxamide] | 500 to 5000 nM
20 | O=C(Nc1nnc(C(F)(F)F)s1)N1CCc2cc(F)ccc2C1 [Compound 9, 6-Fluoro-N-(5-(trifluoromethyl)-1,3,4-thiadiazol-2-yl)-3,4-dihydroisoquinoline-2(1H)-carboxamide] | < 500 nM
21 | O=C(Nc1nnc(C(F)(F)F)s1)N1CCc2cc(Cl)ccc2C1 [Compound 10, 6-Chloro-N-(5-(trifluoromethyl)-1,3,4-thiadiazol-2-yl)-3,4-dihydroisoquinoline-2(1H)-carboxamide] | < 500 nM
22 | O=C(Nc1cc(Cl)c(C(F)(F)F)cc1F)N1CCc2cc(F)ccc2C1 [Compound 11, N-(5-Chloro-2-fluoro-4-(trifluoromethyl)phenyl)-6-fluoro-3,4-dihydroisoquinoline-2(1H)-carboxamide] | < 500 nM
23 | O=C(Nc1cc(Cl)c(Cl)cn1)N1CCc2cc(F)ncc2C1 [Compound 12, N-(4,5-Dichloropyridin-2-yl)-6-fluoro-3,4-dihydro-2,7-naphthyridine-2(1H)-carboxamide] | 500 to 5000 nM
24 | O=C(Nc1cc(Cl)c(C(F)(F)F)cn1)N1CCc2cc(F)ncc2C1 [Compound 13, N-(4-Chloro-5-(trifluoromethyl)pyridin-2-yl)-6-fluoro-3,4-dihydro-2,7-naphthyridine-2(1H)-carboxamide] | 500 to 5000 nM
25 | O=C1NN=C2CN(C(=O)Nc3cc(Cl)c(C(F)(F)F)cc3F)CC=C2N1 [Compound 14, N-(5-Chloro-2-fluoro-4-(trifluoromethyl)phenyl)-3-oxo-2,4,6,8-tetrahydropyrido[4,3-e][1,2,4]triazine-7(3H)-carboxamide] | 500 to 5000 nM
26 | O=C(Nc1cc(Cl)c(C(F)(F)F)cc1F)N1CCc2cc(=O)[nH]nc2C1 [Compound 15, N-(5-Chloro-2-fluoro-4-(trifluoromethyl)phenyl)-3-oxo-2,5,6,8-tetrahydropyrido[3,4-c]pyridazine-7(3H)-carboxamide] | < 500 nM
27 | O=C(Nc1cc(Cl)c(C(F)(F)F)cn1)N1CCc2c(ccnc2F)C1 [Compound 16, N-(4-chloro-5-(trifluoromethyl)pyridin-2-yl)-5-fluoro-3,4-dihydro-2,6-naphthyridine-2(1H)-carboxamide] | < 500 nM
28 | CS(=O)(=O)c1nnc2c(n1)CCN(C(=O)Nc1cc(Cl)c(C(F)(F)F)cc1F)C2 [Compound 18, N-(5-chloro-2-fluoro-4-(trifluoromethyl)phenyl)-3-(methylsulfonyl)-5,8-dihydropyrido[4,3-e][1,2,4]triazine-7(6H)-carboxamide] | 500 to 5000 nM
29 | O=C(Nc1cc(Cl)c(Cl)cn1)N1CCc2c(ccnc2F)C1 [Compound 19, N-(4,5-Dichloropyridin-2-yl)-5-fluoro-3,4-dihydro-2,6-naphthyridine-2(1H)-carboxamide] | < 500 nM
